The values below come from PMC5575254, “An allosteric ligand-binding site in the extracellular cap of K2P channels” (Nature Communications, 2017).

Structures are written as SMILES. Where a chain is given by its changes, count along the chain named.

In assay [1] the target is T1, mutant TREK-1 channels (Homo sapiens, UniProt O95069, T94A).
T1 construct: expressed in transfected cells; host or cells: CHO cells, transient transfection
T1 sequence (O95069 1-411 isoform O95069-2 T79A): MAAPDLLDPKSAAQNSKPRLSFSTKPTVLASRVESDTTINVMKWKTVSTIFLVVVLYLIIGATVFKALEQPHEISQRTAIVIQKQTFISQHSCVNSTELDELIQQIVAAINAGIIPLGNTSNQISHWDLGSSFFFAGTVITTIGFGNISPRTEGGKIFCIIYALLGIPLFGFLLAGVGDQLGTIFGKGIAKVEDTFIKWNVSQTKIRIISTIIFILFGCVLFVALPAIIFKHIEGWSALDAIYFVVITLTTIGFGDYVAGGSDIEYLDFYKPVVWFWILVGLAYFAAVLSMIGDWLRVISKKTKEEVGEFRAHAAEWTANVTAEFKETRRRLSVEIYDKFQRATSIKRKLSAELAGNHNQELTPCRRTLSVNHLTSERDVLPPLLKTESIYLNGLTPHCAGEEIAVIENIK
As to the kind of experiment: Whole-cell voltage clamp of mutant TREK-1 channels. Format: cell-based. Conditions: T79A mutant. The text has this:
(§1) cDNA of the human TREK-1, TREK-2 and TRAAK channels were subcloned into the pEGFPN1 expression vector (Invitrogen), respectively. Mutations were introduced into TREK-1 or TRAAK by PCR using the QuickChange XL sitedirected mutagenesis kit (Agilent Technologies) and were subsequently confirmed by DNA sequencing.
(§2) Chinese hamster ovary (CHO) cells were provided by the Cell Bank of Chinese Academy of Sciences (Shanghai, China). CHO cells were maintained in DMEM/F12 (Gibco) supplemented with 10% fetal bovine serum (Gibco) and 100 μg ml^−1 penicillin-streptomycin (Cellgro) in a humidified incubator at 37 °C (5% CO2). For electrophysiology experiments, cells plated in 35 mm tissue culture dishes (Corning Incorporated) were transiently transfected with the plasmids using PolyJet™ reagent (SignaGen) according to the manufacturer’s instructions. Primers used in this study are listed in Supplementary Table 4.
(§3) All electrophysiological recordings were obtained using patch-clamp recordings in two different configurations: (1) whole cell for macroscopic current dose–response curves; and (2) outside-out and inside-out for macroscopic currents recordings.
(§4) All patch-clamp recordings were conducted 36–96 h after transfection with an Axopatch-200B amplifier (Molecular Devices) at room temperature (23–25 °C). The microelectrodes fashioned from 1.5 mm thin-walled borosilicate glass with filament were pulled from Flaming/Brown type micropipette puller (P-97; SUTTER INSTRUMENT) with the resistances of 3–7 MΩ (whole cell) or 7–15 MΩ (outside-out) when filled with a solution containing (in mM): 140 KCl, 2 MgCl2, 10 EGTA, 1 CaCl2, 10 HEPES (pH 7.3, adjusted with KOH). External solution contained (in mM): 150 NaCl, 5 KCl, 0.5 CaCl2, 1.2 MgCl2, 10 HEPES (pH 7.3, adjusted with NaOH). The current signals were filtered at 1 kHz and digitized at a 10 kHz sampling frequency by using DigiData 1440 A.
(§5) Data of whole-cell voltage clamp experiments were fitted using doseResp function. […]

In assay [2] the target is T2, mutant TREK-1 channels (Homo sapiens, UniProt O95069, Q120A).
T2 construct: expressed in transfected cells; host or cells: CHO cells, transient transfection
T2 sequence (O95069 1-411 isoform O95069-2 Q105A): T1 sequence (O95069 1-411 isoform O95069-2 T79A) with A79T, Q105A
Briefly: Whole-cell voltage clamp of mutant TREK-1 channels. Format: cell-based. Conditions: Q105A mutant.
Excerpt: as §1, §2, §3, §4, §5

Assay [3] concerns cell surface TREK-1 expression. As to the kind of experiment: Flow cytometry analysis of TREK-1 cell membrane expression. Format: cell-based, CHO-K1 cells. The settings on record: 10 μM, 20, 40 min and 1 h incubation. Here is the method:
CHO-K1 cells were transfected with pFLAG-TREK1 for 24 h. After washed with phosphate-buffered saline (PBS), the cells were disassociated with a non-enzyme cell dissociation solution (Sigma). After 10 μM TKDC incubation for 20, 40 min and 1 h at room temperature, cell surface TREK-1 expression in CHO-K1 cells was analyzed by flow cytometry. Transfected cells expressing FLAG-tagged TREK-1 were incubated with monoclonal ANTI-FLAG® M2-FITC antibody (Sigma). Data were collected with a flow cytometer (FACS Calibur, BD Bioscience) and analyzed with Flow Jo.

`CS(=O)(=O)N(CC(=O)N1CCc2ccccc2C1)c1ccc(Cl)cc1` [TKDC, N-(4-cholorphenyl)-N-(2-(3,4-dihydrosioquinolin-2(1H)-yl)-2-oxoethyl)methanesulfonamide]: the figures for the IC50 in assay [1] and in assay [2] were 2400 ± 400 nM and 2200 ± 500 nM, respectively. In assay [3], the “cell surface signal of TREK-1 positive cells” value is recorded as “did not obviously lose the cell surface signal”.

One may read the IC50 as the point on the concentration scale where inhibition reaches its midpoint. A higher IC50 goes with weaker potency in that assay.
